Test results: ChEMBL document CHEMBL2057130, “Bruton's tyrosine kinase inhibitors: approaches to potent and selective inhibition, preclinical and clinical evaluation for inflammatory diseases and B cell malignancies” (J Med Chem, 2012)
Blank lines part the entries; values can stand above or below the compound they belong to.

How the values were obtained:
Blood [1] = assay: Inhibition of CD63 expression in human whole blood; format: functional, tissue-based
[2] = Inhibition of anti-IgM-induced human B cell proliferation; format: functional, cell-based
[3] = Oral bioavailability in dosed rat; format: ADME, organism-based; conditions: in vivo
[4] = Clearance in po dosed rat; format: ADME, organism-based; conditions: in vivo
Macrophage [5] = assay: cells
Description: (§1) Inhibition of immobilized immune complex-stimulated TNFalpha production in macrophages

Mus musculus [6] = assay: Antiarthritic effect in mouse CIA model assessed as inhibition of clinical arthritis scores dosed prophylactically through subcutaneous route; format: functional
Splenocyte = assay: Inhibition of mouse B-cell splenocyte activation by cell proliferation assay; format: functional, cell-based
[7] = molecular target: T1, Tyrosine-protein kinase BTK (Homo sapiens, UniProt Q06187)
Description: Inhibition of human BTK by enzymatic assay

Blood [8] = assay: Inhibition of IgM-stimulated CD69 expression in human whole blood; format: functional, tissue-based
Rattus norvegicus = assay: Inhibition of hypersensitive immune responses in rat passive cutaneous anaphylaxis model at 30 mg/kg; format: functional
Mus musculus [9] = assay: Inhibition of anti-IgD antibody stimulated CD69 expression in mouse CIA model dosed prophylactically at 3 to 100 mg/kg, po measured 24 hrs post dose; format: functional; conditions: dose mg/kg 3-100
Macrophage [10] = tested on: Macrophage
Description: as §1

[11] = molecular target: T1, Tyrosine-protein kinase BTK; assay: Inhibition of BTK in human Ramos cells by FLIPR assay; format: cell-based

T1 sequence (Q06187 whole entry): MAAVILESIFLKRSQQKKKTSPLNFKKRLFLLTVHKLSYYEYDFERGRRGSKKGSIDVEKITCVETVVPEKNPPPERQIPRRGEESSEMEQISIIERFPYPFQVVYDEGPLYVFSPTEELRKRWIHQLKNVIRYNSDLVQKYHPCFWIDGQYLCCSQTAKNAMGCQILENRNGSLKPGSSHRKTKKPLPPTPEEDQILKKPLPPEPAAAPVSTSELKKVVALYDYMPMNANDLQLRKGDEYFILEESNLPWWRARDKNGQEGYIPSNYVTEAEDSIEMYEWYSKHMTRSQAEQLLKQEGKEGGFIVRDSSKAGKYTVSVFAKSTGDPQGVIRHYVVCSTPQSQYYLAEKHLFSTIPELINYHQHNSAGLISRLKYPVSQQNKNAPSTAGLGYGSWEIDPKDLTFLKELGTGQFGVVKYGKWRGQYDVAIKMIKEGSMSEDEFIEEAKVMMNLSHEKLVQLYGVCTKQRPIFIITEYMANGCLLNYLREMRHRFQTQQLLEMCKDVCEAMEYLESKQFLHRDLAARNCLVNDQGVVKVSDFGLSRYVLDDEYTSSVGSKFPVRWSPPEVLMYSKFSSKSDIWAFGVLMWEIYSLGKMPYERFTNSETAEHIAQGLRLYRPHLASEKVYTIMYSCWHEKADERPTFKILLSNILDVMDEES
Description for Mast cell: Inhibition of IgE-Fce cross-linking induced histamine release in mast cells

EC50 (Blood [1]): 1200 nM
bioavailability [3]: < 1%
CL/F [4]: 86 mL/min/kg
SMILES: Cc1c(NC(=O)c2ccc(C(C)(C)C)cc2)cccc1-c1cn(C)c(=O)c(Nc2ccc(C(=O)N3CCOCC3)cc2)n1
IC50 [2]: 42 nM
IC50 (Macrophage [5]): 25 nM
inhibition (INH) (Mus musculus [6]): >97%

SMILES: Cc1ccccc1Nc1nc2cc(F)c(N(C)C(=O)/C=C/CN(C)C)cc2n2cncc12
IC50 (Splenocyte): 3.41 nM

IC50 [7]: 8.2 nM
SMILES: Nc1ncnc2c1c(-c1ccc(Oc3ccccc3)cc1)nn2C1CCCC1

SMILES: C=CC(=O)N1CCCC(c2c(Cl)c(-c3ccc(Oc4ccc(Cl)c(Cl)c4)c(OC)c3)c3c(N)ncnn23)C1 (stereo not given)
IC50 (Splenocyte): 130 nM

IC50 [7]: 400 nM
SMILES: CC(C)(C)c1ccc(C(=O)Nc2cccc(-c3cn4ccnc4c(Nc4ccccc4)n3)c2)cc1

IC50 (Blood [8]; Homo sapiens, Blood): 4 nM
SMILES: CN1CCN(c2ccc(Nc3cc(-c4cccc(N5CCOc6cc(C(C)(C)C)ccc6C5=O)c4CO)cn(C)c3=O)nc2)CC1

SMILES: CN1CCN(c2ccc(Nc3cc(-c4cccc(-n5ccc6cc(C7CC7)cc(F)c6c5=O)c4CO)cn(C)c3=O)nc2)CC1
IC50 (Mast cell): 29.2 nM
inhibition in vivo at 30 mg/kg (Rattus norvegicus): 91%
IC50 (Blood [8]): 17 nM
inhibition (INH) (Mus musculus [9]): 50%
IC50 (Macrophage [10]): 4 nM

IC50 [11]: 11 nM
SMILES: Cc1c(-c2ccc(C(N)=O)c3[nH]c4cc(C(O)CO)ccc4c23)cccc1-n1cnc2ccc(F)cc2c1=O (stereo not given)

SMILES: CC(C)(C)c1ccc(C(=O)N[C@@H]2CCCN(c3nc(Nc4ccc(C(=O)N5CCNCC5)cc4)c4nccn4n3)C2)cc1
IC50 (Splenocyte): 56 nM

IC50 [7]: 144 nM
SMILES: Cc1c(NC(=O)c2ccc(N(C)C)cc2)cccc1-c1nc(Nc2ccc(C(=O)N3CCOCC3)cc2)c2nccn2n1
IC50 (Splenocyte): 142 nM

IC50 [7]: 30 nM
SMILES: Cc1c(NC(=O)c2ccc(N(C)C)cc2)cccc1-c1nc(Nc2ccc(C(=O)N3CCOCC3)cc2)c2ncc(N)n2n1
IC50 (Splenocyte): 32 nM

IC50 [7]: < 100 nM
SMILES: O=C(N[C@@H]1CCCN(c2ncnc3[nH]ccc23)C1)[C@H](Nc1ccccc1)C1CC1

IC50 [7]: < 100 nM
SMILES: O=C(CNc1ccccc1S(=O)(=O)N1CCCCC1)N[C@@H]1CCCN(c2ncnc3[nH]ccc23)C1

SMILES: CN1CCC(=C2c3ccccc3C=Cc3ccccc32)CC1 [CYPROHEPTADINE]
inhibition in vivo at 30 mg/kg (Rattus norvegicus): 69%
